The text below walks through data of US20030175216A1, “Oral antimicrobial and anti-odor compositions” (Innoscent LTD., priority 2001, published 2003).

Molecules are shown by their SMILES.

Test [1] concerns odor formation in freshly-taken morning saliva. In words: Inhibition of in vitro odor formation by higher alcohols (saliva in decarboxylase medium). It is filed as cell-based. The procedure: A series of test tubes were prepared, each containing 5 ml of decarboxylase medium (0.5% peptone, 0.3% yeast extract, 0.1% dextrose and 0.02% bromocresol purple). […] The tubes were incubated at 37° C. for three days. Following incubation, the odor was determined by a panel of odor judges, using the following semi-quantitative scale 0=no odor 1=very slight odor […] The higher alcohols tested were alkanols of chain length C8, C9, C10, C11, C12, C14, C16 and C18.

Another test concerns E. coli. In words: Agar plate zone of growth inhibition. It is filed as cell-based, Escherichia coli. The following applies: for inhibition of E. coli (summary): 1% in 100% ethanol. The protocol:
(§1) The higher alcohols were tested for antimicrobial activity against Gram positive bacteria (Streptococcus mutans), Gram negative bacteria (Pseudomonas spp., Escherichia coli, […]) and the yeast Candida albicans. […] Five microliters of the higher alcohol solutions were placed on the surface of a rich (Brain-heart infusion) agar plate immediately after seeding with a mono-specific bacterial or yeast culture. The plates were incubated for 24-48 hours, and, following further microbial proliferation, the diameters of the zones of growth inhibition were measured (results expressed in centimeters).

The test system of another test is S. mutans. In words: Agar plate zone of growth inhibition. The following applies: for inhibition of S. mutans (summary): 1% in 100% ethanol. It is filed as cell-based, Streptococcus mutans. The procedure:
as §1, with “centimeters). In a further set of experiments, the effect of solvent type on the antimicrobial activity of the C9 alcohol was investigated. […] These solutions were tested for antimicrobial activity towards three microorganisms (M. lysodeikticus, S. mutans and Corynebacterium xerosis) using the same assay as described above. The relationship of the concentration of the C9 alcohol to its antimicrobial activity was also investigated. […] These solutions were tested in the assay described above for their ability to inhibit the growth of the bacteria M. lysodeikticus and S. mutans.” for “centimeters).”

Test [2] has as its system bacteria and yeast tested. In words: Agar plate growth inhibition, summary statements over the test microorganisms. It is filed as cell-based. The following applies: Table VI microorganisms. The procedure: as §1, with “centimeters). In a further set of experiments, the effect of solvent type on the antimicrobial activity of the C9 alcohol was investigated. […] These solutions were tested for antimicrobial activity towards three microorganisms (M. lysodeikticus, S. mutans and Corynebacterium xerosis) using the same assay as described above. The relationship of the concentration of the C9 alcohol to its antimicrobial activity was also investigated. […] These solutions were tested in the assay described above for their ability to inhibit the growth of the bacteria M. lysodeikticus and S. mutans.” for “centimeters).”

For another test, the system named is Pseudomonas aeruginosa. In words: Agar plate zone of growth inhibition. It is filed as cell-based. The following applies: 5 μl of 70% Ethanol alone. The protocol: as §1
Setting [3] is: 10 μl of 1% solution, scale 0-5.
Setting [4] is: 20 μl of 1% solution, scale 0-5.
The mark [5] stands for this setting: 30 μl of 1% solution, scale 0-5.
Setting [6] is: 40 μl of 1% solution, scale 0-5.
[7] abbreviates: 50 μl of 1% solution (C8-C12 in 70% ethanol, C14-C18 in 100% ethanol) in 5 ml medium + 200 μl saliva, 3 days 37° C., scale 0 no odor to 5 extremely foul.
Where [8] appears, read: 50 μl of 1% solution, scale 0-5.
[9] abbreviates: 5 μl of 1% solution (C8-C12 in 70% ethanol, C14-C18 in 100% ethanol).
Setting [10] is: 70% ethanol alone, 100 μl, scale 0-5.
[11] abbreviates: 70% ethanol alone, 200 μl, scale 0-5.

For the compound `CCCCCCCCCCCCCCCC[n+]1ccccc1` [CPC, cetylpyridinium chloride, reference compound], the “Odor Score (Judge 1)” value in test [1] (5 μl of 1% solution, scale 0-5) was 4; in test [1] (setting [3]), 2; in test [1] (setting [4]) it was 0. Besides, the “Odor Score (Judge 2)” value in test [1] (5 μl of 1% solution, scale 0-5) came to 4; in test [1] (setting [3]) it was 2.5; in test [1] (setting [4]), 0.

Consider `CCCCCCCCCCCCCCO` [C14], for which the “Odor Score (Judge 1)” value in test [1] (setting [3]) is given as 5; in test [1] (setting [4]) it was 5; in test [1] (setting [5]) it was 5; in test [1] (setting [6]) it was 5; in test [1] (setting [7]), 4. Besides, the “Odor Score (Judge 2)” value in test [1] (setting [3]) turned out to be 5; in test [1] (setting [4]), 5; in test [1] (setting [5]), 5; in test [1] (setting [6]), 5; in test [1] (setting [8]) it was 4. The “diameter of zone of growth inhibition, E. coli” value with E. coli (setting [9]) is on record as 0.9 centimeters. In addition, the “diameter of zone of growth inhibition, S. mutans” value in the test with S. mutans (setting [9]) amounted to 1.0 centimeters. Besides, the “effect on microbial growth (summary)” value in test [2] is recorded as “inhibit microbial growth”.

On to `CCO` [Ethanol, ethanol, reference compound], for which, in test [1] (setting [10]), the “Odor Score (Judge 1)” value amounted to 5 and the “Odor Score (Judge 2)” value was found to be 4.5. Also, in test [1] (setting [11]), the “Odor Score (Judge 1)” value was determined as 4 and the “Odor Score (Judge 2)” value worked out at 4.5. Besides, the “diameter of zone of growth inhibition, Pseudomonas aeruginosa” value in the test on Pseudomonas aeruginosa is reported as “+ −”. Moreover, the “diameter of zone of growth inhibition, E. coli” value in the test with E. coli (5 μl of 100% Ethanol alone) was 1.0 centimeters. Further, the “diameter of zone of growth inhibition, S. mutans” value with S. mutans (5 μl of 100% Ethanol alone) is reported as “+ −”.

Turning to `CCCCCCCCCCCCCCCCO` [C16], the “Odor Score (Judge 1)” value in test [1] (setting [3]) worked out at 5; in test [1] (setting [4]) it was 5; in test [1] (setting [5]), 5; in test [1] (setting [6]), 5; in test [1] (setting [7]) it was 4. For the same compound, the “Odor Score (Judge 2)” value in test [1] (setting [3]) is given as 5; in test [1] (setting [4]), 5; in test [1] (setting [5]), 5; in test [1] (setting [6]), 5; in test [1] (setting [8]), 4. Besides, the “inhibition of E. coli (summary)” value in the test on E. coli is “moderate inhibition”. In addition, in the test with E. coli (setting [9]), the “diameter of zone of growth inhibition, E. coli” value is listed as 0.7 centimeters. The “inhibition of S. mutans (summary)” value in the test with S. mutans is “not of S. mutans”. Further, the “diameter of zone of growth inhibition, S. mutans” value in the test with S. mutans (setting [9]) was “+ −”.

On to `N=C(NCCCCCCNC(=N)NC(=N)Nc1ccc(Cl)cc1)NC(=N)Nc1ccc(Cl)cc1.O=C(O)[C@H](O)[C@@H](O)[C@H](O)[C@H](O)CO.O=C(O)[C@H](O)[C@@H](O)[C@H](O)[C@H](O)CO` [CHX, chlorhexidine digluconate, reference compound], for which the “Odor Score (Judge 1)” value stood at 4 in test [1] (5 μl of 1% solution, scale 0-5); 2 in test [1] (setting [3]); 0 in test [1] (setting [4]); 0 in test [1] (setting [5]); 0 in test [1] (setting [6]). In addition, the “Odor Score (Judge 2)” value was 4.5 in test [1] (5 μl of 1% solution, scale 0-5); 1 in test [1] (setting [3]); 0 in test [1] (setting [4]); 0 in test [1] (setting [5]); 0 in test [1] (setting [6]).

As to `CCCCCCCCCCCCCCCCCCO` [C18], the “Odor Score (Judge 1)” value in test [1] (setting [3]) stood at 5; in test [1] (setting [4]), 5; in test [1] (setting [5]), 5; in test [1] (setting [6]) it was 4; in test [1] (setting [7]) it was 3.5. Besides, the “Odor Score (Judge 2)” value in test [1] (setting [3]) turned out to be 5; in test [1] (setting [4]) it was 5; in test [1] (setting [5]), 5; in test [1] (setting [6]), 4; in test [1] (setting [8]) it was 4. In addition, the “inhibition of E. coli (summary)” value in the test with E. coli was “moderate inhibition”. Besides, the “diameter of zone of growth inhibition, E. coli” value in the test on E. coli (setting [9]) is reported as 0.8 centimeters. Moreover, the “inhibition of S. mutans (summary)” value with S. mutans was “not of S. mutans”. Also, the “diameter of zone of growth inhibition, S. mutans” value with S. mutans (setting [9]) is on record as “+ −”.
